From patent publication US9931679B2, “Method for cleaning hard surfaces” (KIMBERLY-CLARK WORLDWIDE, INC., priority 2013, dated 2018)

System: Pseudomonas aeruginosa (ATCC 27853)
Assay: Zone of Inhibition Test (AATCC 147-1998, modified)
Type: cell-based
Details: diameter of inhibited colony formation; 1.5 by 1.5 cm test material on inoculated agar plate, 48 hours at ambient temperature
Description: Zone of inhibition testing with a variety of gram negative and gram positive bacteria was performed. The test material was brought into contact with a known amount of test microorganisms on an agar plate for 48 hours at ambient temperature. At the end of the contact time the diameter of inhibited colony formation (zone of inhibition) surrounding the test material was measured. […] Referenced method AATCC 147-1998 “Antibacterial Activity Assessment of Textile Materials: Parallel Streak Method” with changes for following Zone of Inhibition procedure (AATCC is “American Association of Textile Chemists and Colorists” located in Research Triangle Park, N.C.): Organisms used in this study were Escherichia coli (ATCC 11229)/Staphylococcus aureus (ATCC 6538)/Pseudomonas aeruginosa (ATCC 27853) (ATCC is “American Type Culture Collection” an organization in Manassas, Va.). Washed cells were diluted in Butterfield's Phosphate buffer to a target titer of approximately 10^8 colony forming units (CFU)/mL. Agar plates for testing were brought to room temperature prior to inoculation. A sterile applicator swab was placed in cell suspension and excess fluid was expressed using the side of the centrifuge tube. […] At the end of the contact time, the diameter of inhibited colony formation (zone of inhibition) surrounding the test material was measured.

CN[C@H](CC(C)C)C(=O)N[C@H]1C(=O)N[C@@H](CC(N)=O)C(=O)N[C@H]2C(=O)N[C@H]3C(=O)N[C@H](C(=O)N[C@H](C(=O)O)c4cc(O)cc(O)c4-c4cc3ccc4O)[C@H](O)c3ccc(c(Cl)c3)Oc3cc2cc(c3O[C@@H]2O[C@H](CO)[C@@H](O)[C@H](O)[C@H]2O[C@H]2C[C@](C)(N)[C@H](O)[C@H](C)O2)Oc2ccc(cc2Cl)[C@H]1O [Positive Control, vancomycin]
P. aeroginosa ZOI* (cm): 1.9 cm
